Measured values: patent publication US11945798B2, “Substituted aminopyridine compounds as EGFR inhibitors” (YUHAN CORPORATION, priority 2021, dated 2024)
Where two headings read alike, the source gives them in different places.

Legend:
EGFR del19/C797S = EGFR del19/C797S (Homo sapiens, UniProt P00533, C797S/DEL746-750); assay: Biochemical EGFR kinase assay (Lance Ultra TR-FRET), del19/C797S
Method: (§1) Biochemical EGFR kinase assays were conducted using Lance Ultra time-resolved fluorescence resonance energy transfer (TR-FRET) technology from Perkin-Elmer. Compounds of the invention were initially diluted to 20 mM in 100% DMSO for storage and made into kinase buffer solution to create a compound concentration ranging from 0.003 μM and 10 μM.
(§2) Each kinase reactions were incubated at room temperature for 1 hour and then stopped by the addition of 4 μL of stop solution (10 mM EDTA). The specific Europium-labeled-anti-phosphopeptide antibody (PerkinElmer, AD0069) diluted in LANCE detection buffer was then added to a final concentration of 2 nM. After 60 minutes incubation at room temperature the LANCE signal was measured on an EnVision Multilabel Reader (Perkin-Elmer). Excitation wavelength was set at 320 nm and emission monitored at 615 nm (donor) and 665 nm (acceptor). The IC50 values were determined using GraphPad prism software (GraphPad Software, Inc., San Diego, CA, USA).

EGFR del19/T790M/C797S = EGFR del19/T790M/C797S (Homo sapiens, UniProt P00533, C797S/DEL746-750/T790M); assay: Biochemical EGFR kinase assay (Lance Ultra TR-FRET), del19/T790M/C797S
Chain of EGFR del19/T790M/C797S (P00533 with tags, fused parts or gaps DEL746-750/T790M/C797S): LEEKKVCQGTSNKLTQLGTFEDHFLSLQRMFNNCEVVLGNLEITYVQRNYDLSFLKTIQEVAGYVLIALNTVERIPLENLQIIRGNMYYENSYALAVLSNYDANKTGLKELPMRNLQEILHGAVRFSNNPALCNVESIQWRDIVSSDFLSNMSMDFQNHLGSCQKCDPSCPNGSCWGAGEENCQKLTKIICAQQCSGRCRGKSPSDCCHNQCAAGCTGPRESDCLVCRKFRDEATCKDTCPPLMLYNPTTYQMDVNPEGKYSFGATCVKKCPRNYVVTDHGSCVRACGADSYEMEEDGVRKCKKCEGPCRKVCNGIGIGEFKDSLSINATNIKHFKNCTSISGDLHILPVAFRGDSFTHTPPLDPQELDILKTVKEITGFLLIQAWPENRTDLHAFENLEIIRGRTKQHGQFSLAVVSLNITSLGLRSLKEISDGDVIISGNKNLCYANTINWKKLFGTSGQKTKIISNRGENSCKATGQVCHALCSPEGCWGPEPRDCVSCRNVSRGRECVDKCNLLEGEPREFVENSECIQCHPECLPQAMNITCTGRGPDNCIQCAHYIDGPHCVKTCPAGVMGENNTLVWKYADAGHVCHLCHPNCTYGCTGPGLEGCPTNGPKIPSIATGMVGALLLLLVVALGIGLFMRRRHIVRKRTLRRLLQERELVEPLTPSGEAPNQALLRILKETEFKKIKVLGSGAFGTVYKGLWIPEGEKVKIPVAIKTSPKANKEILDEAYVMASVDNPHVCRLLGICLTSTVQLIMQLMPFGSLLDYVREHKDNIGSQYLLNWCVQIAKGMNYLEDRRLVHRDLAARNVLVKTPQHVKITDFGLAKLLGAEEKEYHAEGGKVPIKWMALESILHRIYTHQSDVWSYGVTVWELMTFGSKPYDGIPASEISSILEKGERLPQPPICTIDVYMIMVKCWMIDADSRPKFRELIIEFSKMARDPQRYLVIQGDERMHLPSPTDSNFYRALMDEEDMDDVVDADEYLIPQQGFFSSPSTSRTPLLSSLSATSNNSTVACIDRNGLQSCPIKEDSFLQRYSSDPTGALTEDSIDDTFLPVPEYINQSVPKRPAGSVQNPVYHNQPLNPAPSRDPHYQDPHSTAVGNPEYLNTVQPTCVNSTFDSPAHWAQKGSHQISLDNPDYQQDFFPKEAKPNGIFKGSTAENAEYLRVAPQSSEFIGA
Method: as §1, §2

EGFR wildtype (WT) = EGFR wildtype (WT) (Homo sapiens, UniProt P00533); assay: Biochemical EGFR kinase assay (Lance Ultra TR-FRET), wildtype
Chain of EGFR wildtype (WT) (P00533 25-1210): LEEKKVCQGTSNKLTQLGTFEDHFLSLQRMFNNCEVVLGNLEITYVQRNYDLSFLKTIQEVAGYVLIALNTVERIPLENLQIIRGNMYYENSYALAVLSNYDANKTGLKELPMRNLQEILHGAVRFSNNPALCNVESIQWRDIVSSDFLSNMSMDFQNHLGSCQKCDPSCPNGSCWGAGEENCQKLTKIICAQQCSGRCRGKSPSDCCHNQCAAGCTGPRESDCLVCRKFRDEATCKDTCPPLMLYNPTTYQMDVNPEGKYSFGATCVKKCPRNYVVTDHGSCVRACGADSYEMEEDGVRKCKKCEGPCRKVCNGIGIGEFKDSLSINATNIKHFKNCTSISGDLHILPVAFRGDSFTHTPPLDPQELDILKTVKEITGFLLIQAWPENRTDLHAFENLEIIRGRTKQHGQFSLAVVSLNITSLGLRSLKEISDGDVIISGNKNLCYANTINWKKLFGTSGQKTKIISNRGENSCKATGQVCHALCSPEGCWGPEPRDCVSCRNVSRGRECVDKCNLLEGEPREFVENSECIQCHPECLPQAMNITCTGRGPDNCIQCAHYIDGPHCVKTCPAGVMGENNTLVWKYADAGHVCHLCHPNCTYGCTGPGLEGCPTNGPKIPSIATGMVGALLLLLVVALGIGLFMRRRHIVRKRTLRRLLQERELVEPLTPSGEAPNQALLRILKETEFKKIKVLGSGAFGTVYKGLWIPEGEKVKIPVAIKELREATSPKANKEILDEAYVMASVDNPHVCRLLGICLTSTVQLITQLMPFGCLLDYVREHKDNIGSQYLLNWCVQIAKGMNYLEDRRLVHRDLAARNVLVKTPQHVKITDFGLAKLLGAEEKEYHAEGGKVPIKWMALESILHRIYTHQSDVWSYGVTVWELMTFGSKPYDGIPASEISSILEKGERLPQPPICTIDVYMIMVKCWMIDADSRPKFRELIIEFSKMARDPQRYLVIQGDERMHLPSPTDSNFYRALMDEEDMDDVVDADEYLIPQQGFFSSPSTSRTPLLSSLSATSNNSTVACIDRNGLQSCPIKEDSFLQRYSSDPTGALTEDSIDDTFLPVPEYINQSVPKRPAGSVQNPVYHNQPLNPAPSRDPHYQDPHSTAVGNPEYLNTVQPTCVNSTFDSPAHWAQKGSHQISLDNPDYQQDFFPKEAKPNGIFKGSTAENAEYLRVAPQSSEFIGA
Method: as §1, §2

EGFR L858R/T790M/C797S = EGFR L858R/T790M/C797S (Homo sapiens, UniProt P00533, C797S/L858R/T790M); assay: Biochemical EGFR kinase assay (Lance Ultra TR-FRET), L858R/T790M/C797S
Chain of EGFR L858R/T790M/C797S (P00533 25-1210 T790M/C797S/L858R): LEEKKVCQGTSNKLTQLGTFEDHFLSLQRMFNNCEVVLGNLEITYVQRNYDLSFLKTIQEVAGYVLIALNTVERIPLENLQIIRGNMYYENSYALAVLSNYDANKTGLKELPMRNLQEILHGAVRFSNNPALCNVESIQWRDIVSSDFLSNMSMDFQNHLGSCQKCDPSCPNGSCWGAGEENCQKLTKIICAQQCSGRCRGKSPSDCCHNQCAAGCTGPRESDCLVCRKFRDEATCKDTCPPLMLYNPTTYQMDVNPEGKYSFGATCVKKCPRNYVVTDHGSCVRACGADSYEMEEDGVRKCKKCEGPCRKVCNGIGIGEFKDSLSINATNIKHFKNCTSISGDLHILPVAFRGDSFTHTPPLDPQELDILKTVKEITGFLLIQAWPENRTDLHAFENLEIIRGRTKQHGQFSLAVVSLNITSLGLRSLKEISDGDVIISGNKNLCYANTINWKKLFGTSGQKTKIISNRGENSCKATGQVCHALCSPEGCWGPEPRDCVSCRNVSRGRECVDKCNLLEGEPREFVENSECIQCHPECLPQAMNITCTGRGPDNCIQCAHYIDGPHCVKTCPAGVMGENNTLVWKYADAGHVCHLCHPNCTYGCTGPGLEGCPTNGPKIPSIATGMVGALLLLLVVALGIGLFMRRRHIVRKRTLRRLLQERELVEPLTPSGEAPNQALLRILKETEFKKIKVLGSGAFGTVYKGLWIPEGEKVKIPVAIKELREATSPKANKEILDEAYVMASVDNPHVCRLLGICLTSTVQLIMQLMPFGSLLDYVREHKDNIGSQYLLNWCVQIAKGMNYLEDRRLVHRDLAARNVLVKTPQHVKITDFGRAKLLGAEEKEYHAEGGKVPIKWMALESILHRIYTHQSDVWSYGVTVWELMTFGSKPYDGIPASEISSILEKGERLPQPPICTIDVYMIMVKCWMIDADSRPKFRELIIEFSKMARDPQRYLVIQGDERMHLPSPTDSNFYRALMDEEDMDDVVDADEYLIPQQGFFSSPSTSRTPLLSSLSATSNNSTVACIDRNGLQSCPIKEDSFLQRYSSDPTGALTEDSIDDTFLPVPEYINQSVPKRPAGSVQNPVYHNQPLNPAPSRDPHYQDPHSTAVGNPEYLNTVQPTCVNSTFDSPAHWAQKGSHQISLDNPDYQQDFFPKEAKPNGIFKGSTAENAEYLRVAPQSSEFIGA
Method: as §1, §2

[1] = Km ATP, read-out: IC50 del19/C797S (nM) Km ATP
[2] = Km ATP, read-out: IC50 del19/T790M/C797S (nM) Km ATP
[3] = Km ATP, read-out: IC50 WT (nM) Km ATP
[4] = Km ATP, read-out: IC50 L858R/T790M/C797S (nM) Km ATP

Chain of EGFR del19/C797S (P00533 with tags, fused parts or gaps DEL746-750/C797S): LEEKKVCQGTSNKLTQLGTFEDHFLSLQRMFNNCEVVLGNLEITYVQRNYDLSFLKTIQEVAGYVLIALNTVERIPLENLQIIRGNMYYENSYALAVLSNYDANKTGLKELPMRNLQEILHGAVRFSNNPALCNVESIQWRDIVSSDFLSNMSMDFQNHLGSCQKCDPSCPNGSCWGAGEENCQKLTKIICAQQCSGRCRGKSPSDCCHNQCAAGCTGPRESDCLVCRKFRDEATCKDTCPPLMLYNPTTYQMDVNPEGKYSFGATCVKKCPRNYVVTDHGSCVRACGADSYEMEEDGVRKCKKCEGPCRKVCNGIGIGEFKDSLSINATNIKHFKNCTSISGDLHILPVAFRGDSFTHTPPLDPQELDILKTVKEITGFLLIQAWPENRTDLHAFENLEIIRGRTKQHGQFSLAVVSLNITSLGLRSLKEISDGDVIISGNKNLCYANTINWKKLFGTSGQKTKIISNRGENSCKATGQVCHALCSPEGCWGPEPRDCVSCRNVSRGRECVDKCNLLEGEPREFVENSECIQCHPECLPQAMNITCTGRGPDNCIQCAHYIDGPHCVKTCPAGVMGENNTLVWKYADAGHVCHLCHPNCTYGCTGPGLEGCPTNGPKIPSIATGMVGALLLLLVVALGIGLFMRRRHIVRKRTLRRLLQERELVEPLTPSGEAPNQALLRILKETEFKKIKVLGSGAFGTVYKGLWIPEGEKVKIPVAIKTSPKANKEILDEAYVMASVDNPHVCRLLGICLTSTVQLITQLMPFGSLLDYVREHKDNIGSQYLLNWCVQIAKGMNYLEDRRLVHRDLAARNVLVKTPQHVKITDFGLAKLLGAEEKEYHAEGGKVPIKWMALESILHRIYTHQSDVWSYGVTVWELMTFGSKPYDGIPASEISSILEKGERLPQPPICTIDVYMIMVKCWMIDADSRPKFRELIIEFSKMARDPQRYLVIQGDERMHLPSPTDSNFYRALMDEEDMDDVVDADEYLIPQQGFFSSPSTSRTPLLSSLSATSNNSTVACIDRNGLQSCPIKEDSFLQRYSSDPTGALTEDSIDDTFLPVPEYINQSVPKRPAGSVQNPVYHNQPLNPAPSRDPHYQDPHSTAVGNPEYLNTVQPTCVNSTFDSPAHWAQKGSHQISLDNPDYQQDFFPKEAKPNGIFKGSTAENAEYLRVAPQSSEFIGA

Row | IC50 (EGFR del19/C797S; [1]) [nM] | IC50 (EGFR del19/T790M/C797S; [2]) [nM] | IC50 (EGFR wildtype (WT); [3]) [nM] | IC50 (EGFR L858R/T790M/C797S; [4]) [nM] | IC50 (EGFR wildtype (WT); IC50 WT (nM) 100 μM ATP, 100 μM ATP) [nM] | IC50 (EGFR L858R/T790M/C797S; IC50 L858R/T790M/C797S (nM) 100 μM ATP, 100 μM ATP) [nM] | IC50 (EGFR del19/C797S; IC50 del19/C797S (nM) 100 μM ATP, 100 μM ATP) [nM] | IC50 (EGFR del19/T790M/C797S; IC50 del19/T790M/C797S (nM) 100 μM ATP, 100 μM ATP) [nM] | SMILES
1 | 536 | 72 | – | – | – | – | – | – | O=C(c1cnc(Nc2ccnc(-c3cnn(S(=O)(=O)C4CC4)c3)n2)cc1NC1CC1)C1CC1 [Example 2, Cyclopropyl(4-(cyclopropylamino)-6-((2-(1-(cyclopropylsulfonyl)-1H-pyrazol-4-yl)pyrimidin-4-yl)amino)pyridin-3-yl)methanone]
2 | 232 | 0.9 | 4200 | 5.4 | – | – | – | – | O=C(c1cnc(Nc2ccnc(-c3cnn(S(=O)(=O)C4CC4)c3)n2)cc1NCCF)C1CC1 [Example 3, Cyclopropyl(6-((2-(1-(cyclopropylsulfonyl)-1H-pyrazol-4-yl)pyrimidin-4-yl)amino)-4-((2-fluoroethyl)amino)pyridin-3-yl)methanone]
3 | 83.6 | 1.3 | 2400 | 11.6 | – | – | – | – | O=C(c1cnc(Nc2ccnc(-c3cnn(S(=O)(=O)C4CC4)c3)n2)cc1NCCCCF)C1CC1 [Example 4, Cyclopropyl(6-((2-(1-(cyclopropylsulfonyl)-1H-pyrazol-4-yl)pyrimidin-4-yl)amino)-4-((4-fluorobutyl)amino)pyridin-3-yl)methanone]
4 | 132 | 1.8 | 2970 | 18 | – | – | – | – | O=C(c1cnc(Nc2ccnc(-c3cnn(S(=O)(=O)C4CC4)c3)n2)cc1NCCCC(F)F)C1CC1 [Example 5, Cyclopropyl(6-((2-(1-(cyclopropylsulfonyl)-1H-pyrazol-4-yl)pyrimidin-4-yl)amino)-4-((4,4-difluorobutyl)amino)pyridin-3-yl)methanone]
5 | 78 | 0.6 | 890 | 4.5 | – | – | – | – | O=C(c1cnc(Nc2ccnc(-c3cnn(S(=O)(=O)C4CC4)c3)n2)cc1NCCC1CCOC1)C1CC1 (stereo not drawn) [Example 6, Cyclopropyl(6-((2-(1-(cyclopropylsulfonyl)-1H-pyrazol-4-yl)pyrimidin-4-yl)amino)-4-((2-(tetrahydrofuran-3-yl)ethyl)amino)pyridin-3-yl)methanone]
6 | 49.2 | 0.5 | 426 | 2.7 | – | – | – | – | C[C@H](CCO)Nc1cc(Nc2ccnc(-c3cnn(S(=O)(=O)C4CC4)c3)n2)ncc1C(=O)C1CC1 [Example 7, (R)-Cyclopropyl(6-((2-(1-(cyclopropylsulfonyl)-1H-pyrazol-4-yl)pyrimidin-4-yl)amino)-4-((4-hydroxybutan-2-yl)amino)pyridin-3-yl)methanone]
7 | 553 | 2.1 | 1170 | 13.7 | – | – | – | – | O=C(c1cnc(Nc2ccnc(-c3cnn(S(=O)(=O)C4CC4)c3)n2)cc1NCC1CCCCO1)C1CC1 (stereo not drawn) [Example 10, Cyclopropyl(6-((2-(1-(cyclopropylsulfonyl)-1H-pyrazol-4-yl)pyrimidin-4-yl)amino)-4-(((tetrahydro-2H-pyran-2-yl)methyl)amino)pyridin-3-yl)methanone]
8 | 58.9 | 0.4 | 188 | 2.3 | – | – | – | – | C[C@@H](O)CCNc1cc(Nc2ccnc(-c3cnn(S(=O)(=O)C4CC4)c3)n2)ncc1C(=O)C1CC1 [Example 11, (R)-Cyclopropyl(6-((2-(1-(cyclopropylsulfonyl)-1H-pyrazol-4-yl)pyrimidin-4-yl)amino)-4-((3-hydroxybutyl)amino)pyridin-3-yl)methanone]
9 | 58.2 | 0.4 | 228 | 0.6 | – | – | – | – | CC(O)C(C)(C)Nc1cc(Nc2ccnc(-c3cnn(S(=O)(=O)C4CC4)c3)n2)ncc1C(=O)C1CC1 (stereo not drawn) [Example 12, Cyclopropyl(6-((2-(1-(cyclopropylsulfonyl)-1H-pyrazol-4-yl)pyrimidin-4-yl)amino)-4-((3-hydroxy-2-methylbutan-2-yl)amino)pyridin-3-yl)methanone]
10 | 459 | 4.7 | 3400 | 31.9 | – | – | – | – | CN(C)CCNc1cc(Nc2ccnc(-c3cnn(S(=O)(=O)C4CC4)c3)n2)ncc1C(=O)C1CC1 [Example 14, Cyclopropyl(6-((2-(1-(cyclopropylsulfonyl)-1H-pyrazol-4-yl)pyrimidin-4-yl)amino)-4-((2-(dimethylamino)ethyl)amino)pyridin-3-yl)methanone]
11 | 1 | 10.9 | – | 15.5 | – | – | – | – | O=C(c1cnc(Nc2ccnc(-c3cnn(S(=O)(=O)C4CC4)c3)n2)cc1NCc1cnn(CCF)c1)C1CC1 [Example 17, Cyclopropyl(6-((2-(1-(cyclopropylsulfonyl)-1H-pyrazol-4-yl)pyrimidin-4-yl)amino)-4-(((1-(2-fluoroethyl)-1H-pyrazol-4-yl)methyl)amino)pyridin-3-yl)methanone]
12 | 1 | 13.5 | – | 17.2 | – | – | – | – | O=C(c1cnc(Nc2ccnc(-c3cnn(S(=O)(=O)C4CC4)c3)n2)cc1NCC1CCN(CC2CC2)CC1)C1CC1 [Example 18, Cyclopropyl(4-(((1-(cyclopropylmethyl)piperidin-4-yl)methyl)amino)-6-((2-(1-(cyclopropylsulfonyl)-1H-pyrazol-4-yl)pyrimidin-4-yl)amino)pyridin-3-yl)methanone]
13 | 159 | 3.1 | 682 | 3.8 | – | – | – | – | CN(C)Cc1ccc(CNc2cc(Nc3ccnc(-c4cnn(S(=O)(=O)C5CC5)c4)n3)ncc2C(=O)C2CC2)cn1 [Example 19, Cyclopropyl(6-((2-(1-(cyclopropylsulfonyl)-1H-pyrazol-4-yl)pyrimidin-4-yl)amino)-4-(((6-((dimethylamino)methyl)pyridin-3-yl)methyl)amino)pyridin-3-yl)methanone]
14 | 213 | 1 | 123 | 10.5 | – | – | – | – | CC(C)Oc1cc(Nc2ccnc(-c3cnn(S(=O)(=O)C4CC4)c3)n2)ncc1NC(=O)C1CC1 [Example 42, N-(6-((2-(1-(Cyclopropylsulfonyl)-1H-pyrazol-4-yl)pyrimidin-4-yl)amino)-4-isopropoxypyridin-3-yl)cyclopropanecarboxamide]
15 | 242 | 9 | 796 | – | – | – | – | – | O=C(c1cnc(Nc2ccnc(-c3cnn(S(=O)(=O)C4CC4)c3)n2)cc1NC[C@H]1CC[C@H](Cn2cccn2)CC1)C1CC1 [Example 44, (4-((((1r,4r)-4-((1H-Pyrazol-1-yl)methyl)cyclohexyl)methyl)amino)-6-((2-(1-(cyclopropylsulfonyl)-1H-pyrazol-4-yl)pyrimidin-4-yl)amino)pyridin-3-yl)(cyclopropyl)methanone]
16 | 205 | 0.9 | 751 | 3.1 | – | – | – | – | CCCNc1cc(Nc2ccnc(-c3cnn(S(=O)(=O)C4CC4)c3)n2)ncc1C(C)=O [Example 45, 1-(6-((2-(1-(Cyclopropylsulfonyl)-1H-pyrazol-4-yl)pyrimidin-4-yl)amino)-4-(propylamino)pyridin-3-yl)ethan-1-one]
17 | – | – | – | – | 1900 | 0.5 | 1.8 | 0.5 | CN(C)CCNC1CCC(Nc2cc(Nc3ccnc(-c4cnn(S(=O)(=O)C5CC5)c4)n3)ncc2C(=O)C2CC2)CC1 (stereo not drawn) [Example 53, Cyclopropyl(6-((2-(1-(cyclopropylsulfonyl)-1H-pyrazol-4-yl)pyrimidin-4-yl)amino)-4-((4-((2-(dimethylamino)ethyl)amino)cyclohexyl)amino)pyridin-3-yl)methanone]
18 | 363 | 9.8 | – | 9.4 | – | – | – | – | CN(C)CC1CCC(CNc2cc(Nc3ccnc(-c4cnn(C5CCOC5)c4)n3)ncc2C(=O)C2CC2)CC1 (stereo not drawn) [Example 62, Cyclopropyl(4-((((1r,4r)-4-((dimethylamino)methyl)cyclohexyl)methyl)amino)-6-((2-(1-(tetrahydrofuran-3-yl)-1H-pyrazol-4-yl)pyrimidin-4-yl)amino)pyridin-3-yl)methanone]
19 | 225 | 14.9 | 1140 | – | – | – | – | – | CC(C)Nc1cc(Nc2ccnc(-c3cnn(S(=O)(=O)C4CC4)c3)n2)ncc1C(=O)NCC(F)F [Example 78, 6-((2-(1-(Cyclopropylsulfonyl)-1H-pyrazol-4-yl)pyrimidin-4-yl)amino)-N-(2,2-difluoroethyl)-4-(isopropylamino)nicotinamide]
20 | 24.6 | 2.8 | 76.2 | – | – | – | – | – | CN(C)C[C@H]1CC[C@H](CNc2cc(Nc3ccnc(-c4cnn(S(=O)(=O)C5CC5)c4)n3)ncc2C(=O)N2CC(F)(F)C2)CC1 [Example 82, (6-((2-(1-(Cyclopropylsulfonyl)-1H-pyrazol-4-yl)pyrimidin-4-yl)amino)-4-((((1r,4r)-4-((dimethylamino)methyl)cyclohexyl)methyl)amino)pyridin-3-yl)(3,3-difluoroazetidin-1-yl)methanone]
